Measured values: patent US8252832B2, “Kinesin inhibitors as cancer therapeutics” (Novartis AG, priority 2007, dated 2012)
Read-outs that look alike come from different tables or passages of the source.

Assays:
Experiment in all cases: CellTiter-Glo, NCI60 panel
Type in all cases: cell-based
SNB-19 = details: CNS; for GI50: Homo sapiens
In short: (§1)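 Compounds are added to adherent cells after a 24 h attachment period or to non-adherent cells immediately, and plates are incubated 48 h at 37° C. Viability is then read as ATP-driven luciferase luminescence. Data give the concentration needed for half-maximal growth reduction.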

MOLT-4 = details: Leukemia; for GI50: Homo sapiens
In short: as §1

HL-60 = details: Leukemia; for GI50: Homo sapiens
In short: as §1

NCI-H460 = details: NSCL; for GI50: Homo sapiens
In short: as §1

SF-295 = details: CNS; for GI50: Homo sapiens
In short: as §1

ACHN = details: Renal; for GI50: Homo sapiens
In short: as §1

NCI-H226 = details: NSCL; for GI50: Homo sapiens
In short: as §1

SK-MEL-28 = details: Melanoma; for GI50: Homo sapiens
In short: as §1

U251 = details: for GI50: Homo sapiens, U-251, CNS
In short: as §1

NCI-H23 = details: NSCL; for GI50: Homo sapiens
In short: as §1

SR = details: Leukemia; for GI50: Homo sapiens
In short: as §1

OVCAR-4 = details: Ovarian; for GI50: Homo sapiens
In short: as §1

SNB-75 = details: CNS; for GI50: Homo sapiens
In short: as §1

DU-145 = details: Prostate; for GI50: Homo sapiens
In short: as §1

UO-31 = details: Renal; for GI50: Homo sapiens
In short: as §1

CAKI-1 = details: Renal; for GI50: Homo sapiens
In short: as §1

[1] = GI50 in nM, read-out: Log(GI50) (converted)

Structure (SMILES): CC(C)(C)[C@H](c1nc(-c2cc(F)ccc2F)cn1Cc1ccccc1)N(CC[C@H](N)CF)C(=O)CO [Compound IIa]
- Differential vs mean Log(GI50) (SNB-19): −0.669
- GI50 (SNB-19; [1]): 10 nM
- GI50 (SNB-19; read-out: GI50): 10 nM
- GI50 (MOLT-4; [1]): 0.331 nM
- GI50 (MOLT-4; read-out: GI50): 0.331 nM
- Differential vs mean Log(GI50) (MOLT-4): 0.811
- GI50 (HL-60; [1]): 0.165 nM
- GI50 (HL-60; read-out: GI50): 0.165 nM
- Differential vs mean Log(GI50) (HL-60): 1.114
- GI50 (NCI-H460; [1]): 0.378 nM
- GI50 (NCI-H460; read-out: GI50): 0.378 nM
- Differential vs mean Log(GI50) (NCI-H460): 0.754
- Differential vs mean Log(GI50) (SF-295): 1.122
- GI50 (SF-295; [1]): 0.162 nM
- GI50 (SF-295; read-out: GI50): 0.162 nM
- GI50 (ACHN; [1]): 10 nM
- GI50 (ACHN; read-out: GI50): 10 nM
- Differential vs mean Log(GI50) (ACHN): −0.669
- GI50 (NCI-H226; [1]): 10 nM
- GI50 (NCI-H226; read-out: GI50): 10 nM
- Differential vs mean Log(GI50) (NCI-H226): −0.669
- GI50 (SK-MEL-28; [1]): 10 nM
- GI50 (SK-MEL-28; read-out: GI50): 10 nM
- Differential vs mean Log(GI50) (SK-MEL-28): −0.669
- Differential vs mean Log(GI50) (U251; CNS): 0.953
- GI50 (U251; [1]): 0.239 nM
- GI50 (U251; read-out: GI50): 0.239 nM
- GI50 (NCI-H23; [1]): 0.223 nM
- GI50 (NCI-H23; read-out: GI50): 0.223 nM
- Differential vs mean Log(GI50) (NCI-H23): 0.983
- GI50 (SR; [1]): 0.095 nM
- GI50 (SR; read-out: GI50): 0.095 nM
- Differential vs mean Log(GI50) (SR): 1.353
- GI50 (OVCAR-4; [1]): 10 nM
- GI50 (OVCAR-4; read-out: GI50): 10 nM
- Differential vs mean Log(GI50) (OVCAR-4): −0.669
- Differential vs mean Log(GI50) (SNB-75): −0.669
- GI50 (SNB-75; [1]): 10 nM
- GI50 (SNB-75; read-out: GI50): 10 nM
- GI50 (DU-145; [1]): 0.435 nM
- GI50 (DU-145; read-out: GI50): 0.435 nM
- Differential vs mean Log(GI50) (DU-145): 0.693
- GI50 (UO-31; [1]): 10 nM
- GI50 (UO-31; read-out: GI50): 10 nM
- Differential vs mean Log(GI50) (UO-31): −0.669
- GI50 (CAKI-1; [1]): 10 nM
- GI50 (CAKI-1; read-out: GI50): 10 nM
- Differential vs mean Log(GI50) (CAKI-1): −0.669
